# Experimental data: patent US10085998B2, “Salts of potassium ATP channel openers and uses thereof” (Essentialis, Inc., priority 2006, dated 2018)
# Entries after “also recorded” stand apart in the source; their conditions may differ. Structures can show the parent of a compound that is named as a salt. Where two headings read alike, the source gives them in different places.
# Tests used:
# [1] = Excipient compatibility study for diazoxide choline salt; type: physicochemical; settings: excipient 100 mg + diazoxide choline salt 100 mg
# [2] = Form conversion and degradation under thermal stress; settings: for Thermal stability of form: 7 days
# Description: Studies were also conducted to evaluate the likelihood for conversion and degradation under thermal stress.
# [3] = Slurry studies (inter-conversion of the solid form); settings: for Slurry study: conversion of solid form: dichloromethane (CH2Cl2) and toluene, 7 and 14 days; for Slurries: conversion of solid form: 50/50 mixtures of Forms C, D and F in ethyl acetate, acetonitrile and isopropanol, room temperature
# Description: Slurry experiments were performed on each form to determine propensity for conversion and to see if a unique form could be generated.
# [4] = Moisture sorption analysis; type: physicochemical; settings: for Moisture sorption: hygroscopicity: relative humidity scan; for XRPD pattern following the moisture sorption/desorption analysis: after moisture sorption experiment; for Hysteresis upon desorption / hydrate formation: desorption scan
# Description: Moisture Sorption Analysis was performed with a Hiden IGAsorp Moisture Sorption Instrument. Samples were first dried at 0% relative humidity at 25° C. until an equilibrium weight was reached, or for a maximum of 4 hours. Samples were then subjected to an isothermal (25° C.) scan from 10-90% relative humidity in steps of 10%. The samples were allowed to equilibrate to an asymptotic weight at each point for a maximum of 4 hours. Following absorption, a desorption scan from 85% relative humidity (at 25° C.) was run in steps of −10%, again allowing a maximum of 4 hours for the samples to equilibrate. The resulting samples after desorption were dried at 80° C. for two hours and analyzed by XRPD.
# [5] = Solubility measurements at pH 2, 7 and 12 in phosphate buffer; settings: solids after solubility analysis (choline salt: pH 2 and 7 only)
# Description: (§1) Solubility concentrations were determined using area-percent calculations with HPLC calibration curves.
# [6] = all physiological relevant pH values from pH 2.0 to pH 8.5; deionized water, buffered aqueous solutions
# Description: UV spectroscopy was performed with a Perkin-Elmer Lambda 25 spectrometer. Samples were dissolved in acetonitrile, water and a buffer system having a pH between 5.6 and 10. Spectra were acquired between 340 and 190 nm, using a 1 cm path length with background correction.
# [7] = pH 2
# Description: as §1
# [8] = Solubility screen of diazoxide potassium salt in various solvents; type: physicochemical
# Description: Solvents affording poor to fair solubility were used as antisolvents in binary/ternary crystallizations as well as slurry studies. Table 29 summarizes the results of the solubility screen.
# [9] = Crystallization screening for polymorphic forms (single/binary solvent, fast/slow cooling, XRPD); type: physicochemical
# physchem = settings: thermodynamic from solid
# Description: as §1
# [10] = 60° C., closed, protected from light, 7 and 14 days
# [11] = 25° C., listed as Choline diazoxide salt
# [12] = 25° C., listed as Potassium diazoxide salt
smiles,measurement,setting,value
CC1=Nc2ccc(Cl)cc2S(=O)(=O)N1 [Diazoxide Control],1 Month 40° C./75% RH % (w/w),[1]; one-month storage 40° C./75% RH,99.0 % (w/w)
same,1 Month 50° C. % (w/w),[1]; one-month storage 50° C.,99.4 % (w/w)
CC1=Nc2ccc(Cl)cc2S(=O)(=O)[N-]1.C[N+](C)(C)CCO [Form A],"Form conversion and degradation under thermal stress (XRPD, DSC)",[2]; [10],Started to convert to Form
same,Slurry study: conversion of solid form,[3]; n-heptane,conversion to Form B was observed after seven days; also recorded: Converted to Form B after
same,Moisture sorption: hygroscopicity,[4]; 25° C.,Hygroscopic - deliquesced
same,Water absorbed at 60% RH,[4]; 25° C.,2.4 wt %
same,XRPD pattern following the moisture sorption/desorption analysis,[4],consistent with Form A
CC1=Nc2ccc(Cl)cc2S(=O)(=O)[N-]1.C[N+](C)(C)CCO [Form B],"Form conversion and degradation under thermal stress (XRPD, DSC)",[2]; [10],Stable after 14 days at
same,XRPD pattern of the solids obtained after the solubility analysis,[5],Form B of the choline salt of diazoxide was still present
same,Slurry study: conversion of solid form,[3]; n-heptane,form conversion was not observed
same,Moisture sorption: hygroscopicity,[4]; 25° C.,Hygroscopic - deliquesced
same,Water absorbed at 60% RH,[4]; 25° C.,7.4 wt %
same,XRPD pattern following the moisture sorption/desorption analysis,[4],remained in the Form B crystal structure
CC1=Nc2ccc(Cl)cc2S(=O)(=O)[N-]1.CC1=Nc2ccc(Cl)cc2S(=O)(=O)[N-]1.O.[K+].[K+] [Form D],Thermal stability of form,[2]; 60° C.,Stable (7 days)
same,Slurries: conversion of solid form,[3],conversion to Form D was observed in all solvents; also recorded: Converted to Form D
same,Moisture sorption: hygroscopicity,[4]; 25° C.,hygroscopic; also recorded: Hygroscopic -
same,XRPD pattern following the moisture sorption/desorption analysis,[4],consistent with Form D
C1COCCO1.CC1=Nc2ccc(Cl)cc2S(=O)(=O)[N-]1.CC1=Nc2ccc(Cl)cc2S(=O)(=O)[N-]1.[K+].[K+] [Form F],Thermal stability of form,[2]; 60° C.,Stable (7 days)
same,Slurries: conversion of solid form,[3],conversion to Form D was observed in all solvents; also recorded: Converted to Form D
same,Moisture sorption: hygroscopicity,[4]; 25° C.,hygroscopic
same,XRPD pattern following the moisture sorption/desorption analysis,[4],consistent with Form D
CC1=Nc2ccc(Cl)cc2S(=O)(=O)[N-]1.C[N+](C)(C)CCO [choline salt of diazoxide],Degradation by HPLC after thermal stress,[2],did not show any significant degradation
same,"Form conversion and degradation under thermal stress (XRPD, DSC)",[2],"consistent with the starting material, as well as the presence of additional unique peaks"
same,Fate of the salt in aqueous medium (UV/Vis absorbance),[6],hydrolyzes to the free base of diazoxide and choline hydroxide
same,Slurry study: conversion of solid form,"[3]; n-heptane, listed as Choline diazoxide salt",no propensity of inter-conversion
same,Hysteresis upon desorption / hydrate formation,[4]; 25° C.,does not form a stable hydrate
same,Hysteresis upon desorption / hydrate formation,[4]; [11],no hysteresis
same,Moisture sorption: hygroscopicity,[4]; 25° C.,hygroscopic
same,Moisture sorption: hygroscopicity,[4]; [11],deliquescent -
same,Water absorbed at 80% RH,[4]; 25° C.,over 28 wt %
same,XRPD pattern following the moisture sorption/desorption analysis,[4],changed to an alternate crystalline form
same,XRPD pattern of the solids obtained after the solubility analysis,[7],changed back to the free form diazoxide material
CC1=NS(=O)(=O)c2cc(Cl)ccc2N1 [potassium salt of diazoxide],Conc.,"[8]; solvent Acetone, 55 ° C., 1.6 mg in 4.00 mL",400 µg/mL
same,Soluble,"[8]; solvent Acetone, 55 ° C., at 0.40 mg/mL",Yes
same,Conc.,"[8]; solvent CH2Cl2, 55 ° C., 1.3 mg in 5.00 mL",260 µg/mL
same,Soluble,"[8]; solvent CH2Cl2, 55 ° C., at […]",No
same,Conc.,"[8]; solvent DMF, rt, 1.6 mg in 0.25 mL",>6400 µg/mL
same,Soluble,"[8]; solvent DMF, rt, at >6.40 mg/mL",Yes
same,Conc.,"[8]; solvent Dioxane, 55 ° C., 1.4 mg in 5.00 mL",280 µg/mL
same,Soluble,"[8]; solvent Dioxane, 55 ° C., at […]",No
same,Conc.,"[8]; solvent EtOAc, 55 ° C., 1.8 mg in 5.00 mL",360 µg/mL
same,Soluble,"[8]; solvent EtOAc, 55 ° C., at […]",No
same,Conc.,"[8]; solvent EtOH, 55 ° C., 2.2 mg in 0.75 mL",2930 µg/mL
same,Soluble,"[8]; solvent EtOH, 55 ° C., at […]",Yes
same,Conc.,"[8]; solvent Heptane, 55 ° C., 1.2 mg in 5.00 mL",240 µg/mL
same,Soluble,"[8]; solvent Heptane, 55 ° C., at 0.24 mg/mL",No
same,Conc.,"[8]; solvent IPA, 55 ° C., 2.1 mg in 1.00 mL",2100 µg/mL
same,Soluble,"[8]; solvent IPA, 55 ° C., at […]",Yes
same,Conc.,"[8]; solvent IPAc, 55 ° C., 1.7 mg in 5.00 mL",340 µg/mL
same,Soluble,"[8]; solvent IPAc, 55 ° C., at […]",No
same,Conc.,"[8]; solvent MEK, 55 ° C., 1.5 mg in 5.00 mL",300 µg/mL
same,Soluble,"[8]; solvent MEK, 55 ° C., at 0.30 mg/mL",Partially
same,Conc.,"[8]; solvent MTBE, 55 ° C., 1.8 mg in 5.00 mL",360 µg/mL
same,Soluble,"[8]; solvent MTBE, 55 ° C., at […]",No
same,Conc.,"[8]; solvent MeCN, 55 ° C., 1.7 mg in 2.00 mL",850 µg/mL
same,Soluble,"[8]; solvent MeCN, 55 ° C., at 0.85 mg/mL",Yes
same,Conc.,"[8]; solvent MeOH, 55 ° C., 1.5 mg in 0.25 mL",6000 µg/mL
same,Soluble,"[8]; solvent MeOH, 55 ° C., at 6.00 mg/mL",Yes
same,Conc.,"[8]; solvent THF, 55 ° C., 1.8 mg in 5.00 mL",360 µg/mL
same,Soluble,"[8]; solvent THF, 55 ° C., at […]",Partially
same,Conc.,"[8]; solvent Toluene, 55 ° C., 1.4 mg in 5.00 mL",280 µg/mL
same,Soluble,"[8]; solvent Toluene, 55 ° C., at […]",No
same,Conc.,"[8]; solvent Water, 55 ° C., 1.5 mg in 5.00 mL",300 µg/mL
same,Soluble,"[8]; solvent Water, 55 ° C., at 0.30 mg/mL",No
same,Conc.,"[8]; solvent c-Hexane, 55 ° C., 1.5 mg in 5.00 mL",300 µg/mL
same,Soluble,"[8]; solvent c-Hexane, 55 ° C., at 0.30 mg/mL",No
same,Degradation by HPLC after thermal stress,"[2]; 60° C., 14 days, gradient area percent assay",did not show any significant degradation
same,"Form conversion and degradation under thermal stress (XRPD, DSC)",[2]; [10],showed unique peaks
same,Form,"[9]; XRPD, single-solvent, fast-cooling, MeCN, 42.40 mg/mL, 80 ° C.",C +
same,Precipitate,"[9]; binary-solvent, fast-cooling, McCN 0.6 mL (dissolved at 80° C.), anti-solvent CH2Cl2 1.0 mL",Yes
same,Precipitate,"[9]; binary-solvent, fast-cooling, McCN 0.6 mL (dissolved at 80° C.), anti-solvent Dioxane 6.0 mL",Yes
same,Precipitate,"[9]; binary-solvent, fast-cooling, McCN 0.6 mL (dissolved at 80° C.), anti-solvent EtOAc 6.0 mL",Yes
same,Precipitate,"[9]; binary-solvent, fast-cooling, McCN 0.6 mL (dissolved at 80° C.), anti-solvent Heptane 2.0 mL",Yes
same,Precipitate,"[9]; binary-solvent, fast-cooling, McCN 0.6 mL (dissolved at 80° C.), anti-solvent IPAc 3.0 mL",Yes
same,Precipitate,"[9]; binary-solvent, fast-cooling, McCN 0.6 mL (dissolved at 80° C.), anti-solvent MTBE 1.0 mL",Yes
same,Precipitate,"[9]; binary-solvent, fast-cooling, McCN 0.6 mL (dissolved at 80° C.), anti-solvent THF 6.0 mL",No/Evap.
same,Precipitate,"[9]; binary-solvent, fast-cooling, McCN 0.6 mL (dissolved at 80° C.), anti-solvent Toluene 1.0 mL",Yes
same,Precipitate,"[9]; binary-solvent, fast-cooling, McCN 0.6 mL (dissolved at 80° C.), anti-solvent c-Hexane 2.0 mL",Yes
same,Precipitate,"[9]; single-solvent, fast-cooling, Acetone, 10.35 mg/mL, 55 ° C.",No/Evap
same,Precipitate,"[9]; single-solvent, fast-cooling, EtOAc, 3.52 mg/mL, 75 ° C.",Yes
same,Precipitate,"[9]; single-solvent, fast-cooling, IPA, 75.67 mg/mL, 62 ° C.",Yes
same,Precipitate,"[9]; single-solvent, fast-cooling, MeCN, 42.40 mg/mL, 80 ° C.",Yes
same,Precipitate,"[9]; single-solvent, fast-cooling, Water, 13.73 mg/mL, 95 ° C.",Yes
same,Precipitate,"[9]; single-solvent, fast-cooling, i-AmOH, 65.67 mg/mL, 73 ° C.",Yes
same,Precipitate,"[9]; single-solvent, fast-cooling, t-AmOH, 8.76 mg/mL, 95 ° C.",Yes
same,Precipitate,"[9]; single-solvent, slow-cooling, IPA, 71.67 mg/mL, 80 ° C.",No/Evap
same,Precipitate,"[9]; single-solvent, slow-cooling, MeCN, 45.60 mg/mL, 80 ° C.",Yes
same,Precipitate,"[9]; single-solvent, slow-cooling, i-AmOH, 68.67 mg/mL, 80 ° C.",Yes
same,solubility,"physchem; pH 2, aqueous buffer",9.9 mg/mL
same,solubility,"physchem; pH 7, aqueous buffer",14.4 mg/mL
same,solubility,"physchem; pH 12, aqueous buffer",43 mg/mL
same,Slurry study: conversion of solid form,[3]; n-heptane,no propensity of inter-conversion
same,Degradation by HPLC after slurry study,"[3]; n-heptane, dichloromethane, toluene, gradient area percent assay",did not show any significant degradation
same,Hysteresis upon desorption / hydrate formation,[4]; 25° C.,hemihydrate from 0-30% RH and a monohydrate from 35-75% RH
same,Hysteresis upon desorption / hydrate formation,[4]; [12],hemi/monohydrate
same,Moisture sorption: hygroscopicity,[4]; 25° C.,hygroscopic
same,Moisture sorption: hygroscopicity,[4]; [12],deliquescent -
same,Water absorbed at 60% RH,[4]; 25° C.,5.4 wt %
same,Water absorbed at 90% RH,"[4]; 25° C., 90% RH",38.3 wt %
same,XRPD pattern following the moisture sorption/desorption analysis,[4],changed to an alternate crystalline form
same,XRPD pattern of the solids obtained after the solubility analysis,[7],changed back to the free form diazoxide material
CC1=Nc2ccc(Cl)cc2S(=O)(=O)[N-]1.[Na+] [sodium salt of diazoxide],"Form conversion and degradation under thermal stress (XRPD, DSC)",[2]; [10],little propensity to change form or degrade
same,Slurry study: conversion of solid form,[3]; n-heptane,no propensity of inter-conversion
same,Hysteresis upon desorption / hydrate formation,[4]; 25° C.,possible hydrate formation
same,Moisture sorption: hygroscopicity,[4]; 25° C.,hygroscopic
same,Moisture sorption: hygroscopicity,"[4]; 25° C., listed as Sodium diazoxide salt",deliquescent -
same,Water absorbed at 60% RH,[4]; 25° C.,1.2 wt %
same,Water absorbed at 80% RH,[4]; 25° C.,6.6 wt %
